Data from the supplement of paper PMC10307832.

Assays:
Assay in all cases: relative viability (nuclei count vs DMSO), 5 days (fraction); higher = more cells survive
[1] = compound: CS(=O)(=O)c1ccc(-c2cnc(N)c(C(=O)Nc3ccccc3)n2)cc1 [VE-821] + CC(=O)Nc1cccc(-n2c(=O)n(C3CC3)c(=O)c3c(Nc4ccc(I)cc4F)n(C)c(=O)c(C)c32)c1 [Trametinib] (partner 0.02 µM)
In short: (§1)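 Medians of duplicate plates are given as relative viability. That measure is the nuclei count in treated wells divided by the count in vehicle wells. Counts were taken on 4× images of lung cancer cell lines in 1536-well plates, 5 days after pin-tool dosing the day after seeding with one drug alone or a fixed anchor-drug dose plus five library-drug doses (not always all listed) in √10 steps.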

[2] = compound: CS(=O)(=O)c1ccc(-c2cnc(N)c(C(=O)Nc3ccccc3)n2)cc1 [VE-821] + Nc1nc2[nH]cc(CCc3ccc(C(=O)N[C@@H](CCC(=O)O)C(=O)O)cc3)c2c(=O)[nH]1 [Pemetrexed] (partner 0.2 µM)
In short: as §1

[3] = compound: CS(=O)(=O)c1ccc(C(=O)Nc2ccc(Cl)c(-c3ccccn3)c2)c(Cl)c1 [Vismodegib] + NC(=O)Nc1cc(-c2cccc(F)c2)sc1C(=O)N[C@H]1CCCNC1 [AZD7762] (partner 0.2 µM)
In short: as §1

[4] = compound: CS(=O)(=O)c1ccc(C(=O)Nc2ccc(Cl)c(-c3ccccn3)c2)c(Cl)c1 [Vismodegib] + CCNC(=O)c1noc(-c2cc(C(C)C)c(O)cc2O)c1-c1ccc(CN2CCOCC2)cc1 [Luminespib] (partner 0.01 µM)
In short: as §1

Cell Line | relative viability ([1]; first compound 0.08 µM) | relative viability ([1]; first compound 0.253 µM) | relative viability ([1]; first compound 0.8 µM) | relative viability ([1]; first compound 2.53 µM) | relative viability ([1]; first compound 8 µM) | relative viability ([2]; first compound 0.08 µM) | relative viability ([2]; first compound 0.253 µM) | relative viability ([2]; first compound 0.8 µM) | relative viability ([2]; first compound 2.53 µM) | relative viability ([2]; first compound 8 µM) | relative viability ([3]; first compound 0.08 µM) | relative viability ([3]; first compound 0.253 µM) | relative viability ([3]; first compound 0.8 µM) | relative viability ([3]; first compound 2.53 µM) | relative viability ([3]; first compound 8 µM) | relative viability ([4]; first compound 0.08 µM) | relative viability ([4]; first compound 0.253 µM) | relative viability ([4]; first compound 0.8 µM) | relative viability ([4]; first compound 2.53 µM) | relative viability ([4]; first compound 8 µM)
HCC-366 | 0.38 | 0.381 | 0.293 | 0.13 | 0.0642 | 0.159 | 0.127 | 0.144 | 0.0815 | 0.06 | 0.269 | 0.217 | 0.292 | 0.258 | 0.373 |  |  |  |  | 
NCI-H2023 | 0.575 | 0.488 | 0.349 | 0.252 | 0.181 | 0.24 | 0.202 | 0.17 | 0.123 | 0.0894 |  |  |  |  |  | 0.634 | 0.789 | 0.891 | 0.68 | 0.794
SK-LU-1 | 0.495 | 0.53 | 0.387 | 0.547 | 0.291 | 0.971 | 0.943 | 0.917 | 0.672 | 0.4 |  |  |  |  |  | 0.206 | 0.201 | 0.22 | 0.216 | 0.223
SW 1573 | 0.53 | 0.627 | 0.574 | 0.547 | 0.378 | 0.774 | 0.816 | 0.748 | 0.784 | 0.576 |  |  |  |  |  |  | 0.216 | 0.174 | 0.215 | 0.207
NCI-H1648 | 0.581 |  | 0.394 | 0.729 | 0.575 | 0.977 |  | 0.569 | 0.63 | 0.611 | 0.811 | 0.717 | 0.833 | 0.693 | 0.696 |  |  |  |  | 
NCI-H2009 | 0.266 | 0.287 | 0.254 | 0.263 | 0.174 | 1.03 | 1 | 1.02 | 0.851 | 0.732 |  |  |  |  |  | 0.873 | 0.968 | 1.03 | 1.01 | 1.04
NCI-H2228 | 0.51 | 0.645 | 0.354 | 0.644 | 0.382 | 0.333 | 0.373 | 0.301 | 0.253 | 0.156 |  |  |  |  |  | 0.225 | 0.183 | 0.182 | 0.127 | 0.18
NCI-H1703 |  |  |  |  |  |  |  |  |  |  | 0.139 |  | 0.134 | 0.104 | 0.152 |  |  |  |  | 
ABC-1 |  |  |  |  |  |  |  |  |  |  | 0.97 | 0.851 | 0.823 | 0.803 | 0.839 | 0.577 | 0.381 | 0.551 | 0.672 | 0.405
SK-MES-1 | 0.609 | 0.516 | 0.462 | 0.471 | 0.455 | 0.98 | 0.934 | 0.838 | 0.612 | 0.352 |  |  |  |  |  | 0.775 | 0.765 | 0.849 | 0.853 | 0.922
NCI-H661 | 0.703 | 0.536 | 0.563 | 0.658 | 0.52 | 0.979 | 0.923 | 0.84 | 0.744 | 0.571 |  |  |  |  |  | 0.945 | 0.909 | 0.934 | 0.876 | 0.889
